This assay addresses T1, full-length Tau (human Tau40wt) (Homo sapiens, UniProt P10636).
T1 construct: gene MAPT; full-length recombinant Tau (Tau40wt, 441 residues)
Nature of the assay: isothermal titration calorimetry ([…] Tau titrated with […] EGCG). The class given is binding.

Each structure is given as a SMILES string.

T1 sequence (P10636 1-441 isoform P10636-8): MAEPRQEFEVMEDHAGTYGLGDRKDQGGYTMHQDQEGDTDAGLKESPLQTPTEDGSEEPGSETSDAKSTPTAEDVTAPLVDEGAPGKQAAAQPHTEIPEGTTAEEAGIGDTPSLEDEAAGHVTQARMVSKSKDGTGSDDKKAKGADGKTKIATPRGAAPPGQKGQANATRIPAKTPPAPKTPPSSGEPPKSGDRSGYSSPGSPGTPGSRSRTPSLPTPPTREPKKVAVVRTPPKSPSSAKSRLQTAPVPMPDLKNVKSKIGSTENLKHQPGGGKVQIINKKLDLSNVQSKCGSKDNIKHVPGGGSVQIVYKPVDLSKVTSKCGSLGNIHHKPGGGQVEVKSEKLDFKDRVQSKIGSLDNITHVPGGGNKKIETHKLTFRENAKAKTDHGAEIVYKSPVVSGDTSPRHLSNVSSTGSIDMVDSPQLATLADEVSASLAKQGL

As for `O=C(O[C@@H]1Cc2c(O)cc(O)cc2O[C@@H]1c1cc(O)c(O)c(O)c1)c1cc(O)c(O)c(O)c1` [EGCG], the Kd came out at 74 nM.

(Values after publication PMC7387440, “EGCG impedes human Tau aggregation and interacts with Tau” (Scientific Reports, 2020).)
